The target of this assay is T1, Avi-tagged FL MALT-1 (Homo sapiens, UniProt Q9UDY8).
T1 construct: Avi-tagged FL MALT-1 (Pharmaron, stored at −70° C.); Avi-tag; purchased Pharmaron
T1 sequence (Q9UDY8 1-824): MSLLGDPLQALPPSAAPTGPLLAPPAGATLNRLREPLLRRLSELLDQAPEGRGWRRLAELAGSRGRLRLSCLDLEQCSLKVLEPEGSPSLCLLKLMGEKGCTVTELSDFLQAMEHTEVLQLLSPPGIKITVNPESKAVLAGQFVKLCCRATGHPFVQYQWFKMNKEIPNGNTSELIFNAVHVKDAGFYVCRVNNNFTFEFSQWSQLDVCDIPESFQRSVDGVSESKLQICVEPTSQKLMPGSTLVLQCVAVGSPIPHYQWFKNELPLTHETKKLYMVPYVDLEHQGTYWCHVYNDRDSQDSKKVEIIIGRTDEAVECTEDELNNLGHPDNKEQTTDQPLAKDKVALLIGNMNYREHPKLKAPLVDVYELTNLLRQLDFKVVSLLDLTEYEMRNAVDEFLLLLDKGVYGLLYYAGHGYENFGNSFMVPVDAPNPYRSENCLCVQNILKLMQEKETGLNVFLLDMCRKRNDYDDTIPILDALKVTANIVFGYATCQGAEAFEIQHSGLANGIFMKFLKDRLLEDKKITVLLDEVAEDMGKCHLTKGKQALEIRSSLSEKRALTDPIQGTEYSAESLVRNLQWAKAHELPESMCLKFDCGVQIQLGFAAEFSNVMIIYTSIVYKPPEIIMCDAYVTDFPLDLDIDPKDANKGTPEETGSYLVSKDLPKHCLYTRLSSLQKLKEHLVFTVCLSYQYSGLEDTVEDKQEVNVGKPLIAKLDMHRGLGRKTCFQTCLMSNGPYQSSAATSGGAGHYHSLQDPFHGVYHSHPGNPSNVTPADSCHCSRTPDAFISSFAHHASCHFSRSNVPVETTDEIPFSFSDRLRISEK
The assay is described as follows: MALT-1 Fluorogenic Peptide Cleavage Assay (MALT1 inhibition assay). Type of assay: biochemical. Particulars: Ac-LRSR-AMC peptide substrate; 30 min pre-incubation, 90 min reaction at room temperature; fluorescence. The gist of the method: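 Full-length Avi-tagged enzyme preincubated 30 min at room temperature with compound (2% DMSO final) in HEPES pH 6.89 buffer with sodium citrate, TCEP, EDTA and CHAPS. Ac-LRSR-AMC substrate added at Km or 10×Km (working stocks 50 or […] μM); fluorescence (ex 342/em 441 nm) after 90 min; IC50 from sigmoidal fit.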

SMILES strings stand for the structures.

These results are taken from patent publication US20260124222A1, “ISOTHIAZOLYLCARBOXAMIDE COMPOUNDS AND THEIR USE IN THERAPY” (HOTSPOT THERAPEUTICS, INC., priority 2022, published 2026).

Consider `CC(=O)N1CC(c2nsc(C(=O)Nc3cnc(-n4nccn4)c(C#N)c3)c2C(F)(F)F)C1` [I-129, 3-(1-acetylazetidin-3-yl)-N-[5-cyano-6-(1,2,3-triazol-2-yl)pyridin-3-yl]-4-(trifluoromethyl)-1,2-thiazole-5-carboxamide], for which the concentration for half-maximal inhibition (IC50) (as a rule, the concentration needed to halve the response being measured) was above 2500 nM. Consider `CN1CC(c2nsc(C(=O)Nc3cnc(-n4nccn4)c(C#N)c3)c2C(F)(F)F)C1` [I-130, N-[5-cyano-6-(1,2,3-triazol-2-yl)pyridin-3-yl]-3-(1-methylazetidin-3-yl)-4-(trifluoromethyl)-1,2-thiazole-5-carboxamide], for which the IC50 was above 2500 nM. To `N#Cc1cc(NC(=O)c2snc(-c3cccc4nccn34)c2C2CC2)cnc1-n1nccn1` [I-131, N-(5-cyano-6-(2H-1,2,3-triazol-2-yl)pyridin-3-yl)-4-cyclopropyl-3-(imidazo[1,2-a]pyridin-5-yl)isothiazole-5-carboxamide] belongs at most 400 nM; to `O=C(Nc1ccnc(C(F)(F)F)c1)c1snc(-c2cccc3nccn23)c1C1CC1` [I-132, 4-cyclopropyl-3-(imidazo[1,2-a]pyridin-5-yl)-N-(2-(trifluoromethyl)pyridin-4-yl)isothiazole-5-carboxamide], at most 400 nM. `O=C(Nc1ccc(C(=O)N2CC(O)C2)c(Cl)c1)c1snc(-c2cccc3ncccc23)c1C1CC1` [I-133, N-(3-chloro-4-(3-hydroxyazetidine-1-carbonyl)phenyl)-4-cyclopropyl-3-(quinolin-5-yl)isothiazole-5-carboxamide] had an IC50 of at most 400 nM. To `CN1CC=C(c2nsc(C(=O)Nc3cnc(-n4nccn4)c(C#N)c3)c2C2CC2)CC1` [I-134, N-(5-cyano-6-(2H-1,2,3-triazol-2-yl)pyridin-3-yl)-4-cyclopropyl-3-(1-methyl-1,2,3,6-tetrahydropyridin-4-yl)isothiazole-5-carboxamide] belongs above 2500 nM. To `O=C(Nc1ccnc(C(F)(F)F)c1)c1snc(-c2ccccc2Cl)c1C1CC1` [I-135, 3-(2-chlorophenyl)-4-cyclopropyl-N-[2-(trifluoromethyl)pyridin-4-yl]-1,2-thiazole-5-carboxamide] belongs at most 400 nM; to `O=C(Nc1ccnc(C(F)(F)F)c1)c1snc(-c2ccc(Cl)cc2)c1C1CC1` [I-136, 3-(4-chlorophenyl)-4-cyclopropyl-N-[2-(trifluoromethyl)pyridin-4-yl]-1,2-thiazole-5-carboxamide], at most 400 nM; to `O=C(Nc1ccnc(C(F)(F)F)c1)c1snc(-c2ccc(C(F)(F)F)cc2)c1C1CC1` [I-137, 4-cyclopropyl-3-[4-(trifluoromethyl)phenyl]-N-[2-(trifluoromethyl)pyridin-4-yl]-1,2-thiazole-5-carboxamide], 400 to 1000 nM. To `O=C(Nc1ccnc(C(F)(F)F)c1)c1snc(-c2cccc(C(F)(F)F)c2)c1C1CC1` [I-138, 4-cyclopropyl-3-(3-(trifluoromethyl)phenyl)-N-(2-(trifluoromethyl)pyridin-4-yl)isothiazole-5-carboxamide] belongs at most 400 nM; to `O=C(Nc1ccnc(C(F)(F)F)c1)c1snc(-c2cccc(Cl)c2)c1C1CC1` [I-139, 3-(3-chlorophenyl)-4-cyclopropyl-N-(2-(trifluoromethyl)pyridin-4-yl)isothiazole-5-carboxamide], at most 400 nM.

`Cc1ccc(-c2nsc(C(=O)Nc3ccnc(C(F)(F)F)c3)c2C2CC2)c2cccnc12` [I-140, 4-cyclopropyl-3-(8-methylquinolin-5-yl)-N-[2-(trifluoromethyl)pyridin-4-yl]-1,2-thiazole-5-carboxamide]: the IC50 was at most 400 nM. As for `CC(=O)Nc1cccc(-c2nsc(C(=O)Nc3ccnc(C(F)(F)F)c3)c2C2CC2)c1` [I-141, 4-cyclopropyl-3-(3-acetamidophenyl)-N-[2-(trifluoromethyl)pyridin-4-yl]-1,2-thiazole-5-carboxamide], the figure is 400 to 1000 nM; as for `O=C(Nc1ccnc(C(F)(F)F)c1)c1snc(-c2ccc3scnc3c2)c1C1CC1` [I-142, 3-(1,3-benzothiazol-5-yl)-4-cyclopropyl-N-[2-(trifluoromethyl)pyridin-4-yl]-1,2-thiazole-5-carboxamide], at most 400 nM; as for `Cc1nn(C)cc1-c1nsc(C(=O)Nc2ccnc(C(F)(F)F)c2)c1C1CC1` [I-143, 4-cyclopropyl-3-(1,3-dimethyl-1H-pyrazol-4-yl)-N-(2-(trifluoromethyl)pyridin-4-yl)isothiazole-5-carboxamide], at most 400 nM.

`O=C(Nc1ccnc(C(F)(F)F)c1)c1snc(-c2cncnc2)c1C1CC1` [I-144, 4-cyclopropyl-3-(pyrimidin-5-yl)-N-[2-(trifluoromethyl)pyridin-4-yl]-1,2-thiazole-5-carboxamide] registered an IC50 of at most 400 nM. To `CN(C)c1ccc(-c2nsc(C(=O)Nc3ccnc(C(F)(F)F)c3)c2C2CC2)cc1` [I-145, 4-cyclopropyl-3-[4-(dimethylamino)phenyl]-N-[2-(trifluoromethyl)pyridine-4-yl]-1,2-thiazole-5-carboxamide] belongs above 2500 nM; to `O=C(Nc1ccnc(C(F)(F)F)c1)c1snc(-c2cncc(F)c2)c1C1CC1` [I-146, 4-cyclopropyl-3-(5-fluoropyridin-3-yl)-N-[2-(trifluoromethyl)pyridine-4-yl]-1,2-thiazole-5-carboxamide], at most 400 nM; to `O=C(Nc1ccnc(C(F)(F)F)c1)c1snc(-c2ccccc2F)c1C1CC1` [I-147, 4-cyclopropyl-3-(2-fluorophenyl)-N-[2-(trifluoromethyl)pyridine-4-yl]-1,2-thiazole-5-carboxamide], at most 400 nM.

On to `CC(=O)Nc1ccc(-c2nsc(C(=O)Nc3ccnc(C(F)(F)F)c3)c2C2CC2)cc1` [I-148, 3-(4-acetamidophenyl)-4-cyclopropyl-N-(2-(trifluoromethyl)pyridin-4-yl)isothiazole-5-carboxamide], for which the IC50 was 400 to 1000 nM. As for `Cn1ccc(-c2nsc(C(=O)Nc3ccnc(C(F)(F)F)c3)c2C2CC2)n1` [I-150, 4-cyclopropyl-3-(1-methyl-1H-pyrazol-3-yl)-N-(2-(trifluoromethyl)pyridin-4-yl)isothiazole-5-carboxamide], the figure is 1000 to 2500 nM; as for `O=C(Nc1ccnc(C(F)(F)F)c1)c1snc(-c2ccn3ncnc3c2)c1C1CC1` [I-151, 3-([1,2,4]triazolo[1,5-a]pyridin-7-yl)-4-cyclopropyl-N-(2-(trifluoromethyl)pyridin-4-yl)isothiazole-5-carboxamide], 400 to 1000 nM. As for `Cn1ncc2c(-c3nsc(C(=O)Nc4ccnc(C(F)(F)F)c4)c3C3CC3)cccc21` [I-152, 4-cyclopropyl-3-(1-methyl-1H-indazol-4-yl)-N-(2-(trifluoromethyl)pyridin-4-yl)isothiazole-5-carboxamide], the figure is at most 400 nM; as for `O=C(Nc1ccnc(C(F)(F)F)c1)c1snc(-c2ccc3ncsc3c2)c1C1CC1` [I-153, 3-(1,3-benzothiazol-6-yl)-4-cyclopropyl-N-[2-(trifluoromethyl)pyridin-4-yl]-1,2-thiazole-5-carboxamide], at most 400 nM. To `O=C(Nc1ccnc(C(F)(F)F)c1)c1snc(-c2ccc(C(F)F)cc2)c1C1CC1` [I-154, 4-cyclopropyl-3-(4-(difluoromethyl)phenyl)-N-(2-(trifluoromethyl)pyridin-4-yl)isothiazole-5-carboxamide] belongs at most 400 nM; to `O=C(Nc1ccnc(C(F)(F)F)c1)c1snc(-c2ccncc2F)c1C1CC1` [I-155, 4-cyclopropyl-3-(3-fluoropyridin-4-yl)-N-[2-(trifluoromethyl)pyridin-4-yl]-1,2-thiazole-5-carboxamide], at most 400 nM; to `COc1cccc(-c2nsc(C(=O)Nc3ccnc(C(F)(F)F)c3)c2C2CC2)c1` [I-156, 4-cyclopropyl-3-(3-methoxyphenyl)-N-(2-(trifluoromethyl)pyridin-4-yl)isothiazole-5-carboxamide], at most 400 nM. On to `Cn1cc2c(-c3nsc(C(=O)Nc4ccnc(C(F)(F)F)c4)c3C3CC3)cccc2n1` [I-157, 4-cyclopropyl-3-(2-methyl-2H-indazol-4-yl)-N-(2-(trifluoromethyl)pyridin-4-yl)isothiazole-5-carboxamide], for which the concentration for half-maximal inhibition (IC50) is at most 400 nM. To `N#Cc1cccc(-c2nsc(C(=O)Nc3ccnc(C(F)(F)F)c3)c2C2CC2)c1` [I-158, 3-(3-cyanophenyl)-4-cyclopropyl-N-[2-(trifluoromethyl)pyridin-4-yl]-1,2-thiazole-5-carboxamide] belongs at most 400 nM.
